# According to the NIST ThermoML archive (doi:10.1016/j.fluid.2011.03.003):
# Numbers after ± are expanded uncertainties.
# Conditions: Liquid, Closed cell (Static) method
structure (smiles),measurement,setting,value
CCC(=O)OC(C)C [1-methylethyl propanoate],vapor or sublimation pressure,337.66 K,24.6 ± 0.09 kPa
same,vapor or sublimation pressure,342.61 K,29.5 ± 0.11 kPa
same,vapor or sublimation pressure,347.62 K,35.68 ± 0.13 kPa
same,vapor or sublimation pressure,352.67 K,42.43 ± 0.15 kPa
same,vapor or sublimation pressure,357.58 K,50.12 ± 0.18 kPa
same,vapor or sublimation pressure,362.57 K,59 ± 0.2 kPa
same,vapor or sublimation pressure,382.65 K,101.3 ± 0.3 kPa
CC(C)O [propan-2-ol],vapor or sublimation pressure,355.15 K,101.3 ± 1.2 kPa
CCC(=O)O [propanoic acid],vapor or sublimation pressure,413.58 K,101.3 ± 1.2 kPa
